Legend:
[1] = test system: 293T cells stably expressing split RL reporters; assay: Cell Titer-Blue cell proliferation assay; type: cell-based; details: Homo sapiens, HEK-293T
Method: Inhibition of cell proliferation at 20 μM was determined by cell-titer blue assays and toxic compounds were eliminated. The IC50 values for inhibition of bioluminescence signals (BLI) in cells stably expressing Hsp90(α/β)/p23 split RL reporters and the inhibition of cell proliferation for the top 19 compounds are shown in Table 1, Example 15, and their structures are shown in FIGS. 1A-1D.
Baseline complemented RL activities were determined 90 mins after addition of 20 μl of ENDUREN® (10 μM final concentration) (Promega, Madison, Wis.) using the Analyst GT (Molecular Device, Sunnyvale, Calif.), with an acquisition time of 0.2 sec per well. Cells were incubated with compounds for 24 h prior to re-determination of complemented RL activities, and normalized to the mean RL activities of untreated cells in columns 1-2. Another small molecule chemical library with 30,176 compounds (SPECS, Wakefield, R.I.) was also used in screening modulators of Hsp90(α/β)/p23 inhibitors (at 8.3 μM, one drug per well for initial screening). For dose response/confirmation assay the compounds were tested in duplicate in an 8 point (0.156-20 μM) dose response assay for RL activities for both Hps90(α/β)/p23 interactions. The effect of each compound on cell proliferation at 20 μM was determined using Cell Titer-Blue assay in duplicate wells. […]

[2] = test system: endogenous Hsp90(α/β)/p23 interactions; assay: Co-immunoprecipitation of Hsp90(α/β)/p23; type: cell-based, human; details: 5 μM, 24 h, 293T cells
Method: FIG. 5B is a digital image of a western blot analysis illustrating the effects of compounds CP1, CP9 and CP18 on disruption of Hsp90α/p23 and Hsp90β/p23 as determined by co-immunoprecipitation using antibodies against p23 and probing with Hsp90α- and Hsp90β-specific antibodies. The blot was probed with antibodies against p23 to ensure similar immunoprecipitation efficiency. Cells treated with 2 μM of PU-H71 served as a positive control.
Cells treated with PU-H71 (2 μM) served as a positive control.
Cells treated with 2 μM of PU-H71 served as a positive control. Western blotting of Hsp70, phosphorylated and total Akt and co-immunoprecipitation of Hsp90(α/β)/p23 interactions was performed as described Inglese et al., (2006) Proc. Nat. Acad. Sci. U.S.A. 103: 11473-11478, incorporated herein by reference in its entirety. The expression of Raf-1 was determined using rabbit polyclonal antibodies against Raf-1 (0.5 μg/ml, Abcam).

[3] = test system: Hsp90 client proteins (phosphorylated/total Akt, Raf-1); assay: Ex vivo western blotting of excised tumors; type: in vivo, mice; details: western blotting after last imaging time point; p>0.05
Method: To determine if the inhibition of Hsp90(α/β)/p23 interactions also leads to degradation of Hsp90 client proteins in mice, tumors were excised from sacrificed mice after the last PET/CT imaging time point. The expression of phosphorylated/total Akt and Raf-1 in tumor lysates was determined by western blotting. α-tubulin was used as a loading control.
Mice were euthanized after the last imaging time points and tumors were excised and homogenized in tissue extraction buffer in the presence of HALT® protease and phosphatase inhibitors (all from Pierce, Ill.). Protein concentrations were determined by Biorad Protein Dc assay. The expression of phosphorylated/total Akt, Raf-1 and […] were determined by western blotting as described in Chan et al., (2008) Cancer Res. 68: 216-226. Western blot images were quantitated using NIH Image J, and expressed as the ratio of target protein/α-tubulin for each treatment group.

In the case of `Cc1cc(NC(=O)CSc2nc(-c3cccs3)cc(C(F)(F)F)n2)no1` [CP9, N-(5-methylisoxazol-3-yl)-2-(4-(thiophen-2-yl)-6-(trifluoromethyl)pyrimidin-2-ylthio)acetamide], the inhibition at 20 µM [1] is reported as 29%, the “disruption of endogenous Hsp90(α/β)/p23 interactions by co-immunoprecipitation” value [2] is reported as “disruption of endogenous Hsp90(α/β)/p23 interactions” and the “Hsp90 client proteins in excised tumors relative to carrier control” value [3] is reported as “did not lead to significant degradation”.

— patent US20130310347A1, “MULTI-MODALITY MOLECULAR IMAGING HIGH-THROUGHPUT ASSAY FOR IDENTIFYING HEAT SHOCK PROTEIN 90 (HSP90) INHIBITORS” (The Board of Trustees of the Leland Stanford Junior …, priority 2012, published 2013)
